Here are results for six compounds from PubChem BioAssay AID1259407 (Chemical Carcinogenesis Research Information System (CCRIS), 2018).

The source made the active and inactive calls. No rule for the calls is given here.

For this series, the system named is CCRIS mutagenicity, Ames/micronucleus/aberration tests. Briefly: CCRIS mutagenicity studies.
Where [1] appears, read: Test System: AMES SALMONELLA TYPHIMURIUM, Strain/Indicator: TA98, Metabolic Activation: NONE, Method: PREINCUBATION
Where [2] appears, read: Test System: AMES SALMONELLA TYPHIMURIUM, Strain/Indicator: TA100, Metabolic Activation: NONE, Method: PREINCUBATION
[3] abbreviates: Test System: AMES SALMONELLA TYPHIMURIUM, Strain/Indicator: TA1535, Metabolic Activation: NONE, Method: PREINCUBATION
[4] abbreviates: Test System: AMES SALMONELLA TYPHIMURIUM, Strain/Indicator: TA1537, Metabolic Activation: NONE, Method: PREINCUBATION
The mark [5] stands for this setting: Test System: AMES SALMONELLA TYPHIMURIUM, Strain/Indicator: TA98, Metabolic Activation: NONE, Method: STANDARD PLATE.
The mark [6] stands for this setting: Test System: AMES SALMONELLA TYPHIMURIUM, Strain/Indicator: TA98, Metabolic Activation: RAT, LIVER, S-9, AROCLOR 1254, Method: STANDARD PLATE.
Setting [7] is: Test System: AMES SALMONELLA TYPHIMURIUM, Strain/Indicator: TA100, Metabolic Activation: NONE, Method: STANDARD PLATE.
Where [8] appears, read: Test System: AMES SALMONELLA TYPHIMURIUM, Strain/Indicator: TA100, Metabolic Activation: RAT, LIVER, S-9, AROCLOR 1254, Method: STANDARD PLATE.
[9] abbreviates: Test System: AMES SALMONELLA TYPHIMURIUM, Strain/Indicator: TA1537, Metabolic Activation: NONE, Method: STANDARD PLATE.

Consider `CCOc1cc(C=O)ccc1O`, for which the mutagenic call (Test System: AMES SALMONELLA TYPHIMURIUM, Strain/Indicator: TA97, Metabolic Activation: NONE, Method: PREINCUBATION) is “inactive; negative”; the mutagenic call (Test System: AMES SALMONELLA TYPHIMURIUM, Strain/Indicator: TA97, Metabolic Activation: RAT, LIVER, S-9, AROCLOR 1254, Method: PREINCUBATION) was “inactive; negative”; the mutagenic call under setting [1] was “inactive; negative”; the mutagenic call (Test System: AMES SALMONELLA TYPHIMURIUM, Strain/Indicator: TA98, Metabolic Activation: RAT, LIVER, S-9, PHENOBARBITAL AND BETA-NAPHTHOFLAVONE, Method: PREINCUBATION) is “inactive; negative”; the mutagenic call under setting [2] was “inactive; negative”; the mutagenic call (Test System: AMES SALMONELLA TYPHIMURIUM, Strain/Indicator: TA100, Metabolic Activation: RAT, LIVER, S-9, PHENOBARBITAL AND BETA-NAPHTHOFLAVONE, Method: PREINCUBATION) is “inactive; negative”. The mutagenic call is “inactive; negative” (Test System: AMES SALMONELLA TYPHIMURIUM, Strain/Indicator: TA102, Metabolic Activation: NONE, Method: PREINCUBATION); “inactive; negative” (Test System: AMES SALMONELLA TYPHIMURIUM, Strain/Indicator: TA102, Metabolic Activation: RAT, LIVER, S-9, AROCLOR 1254, Method: PREINCUBATION); “inactive; negative” (Test System: AMES SALMONELLA TYPHIMURIUM, Strain/Indicator: TA102, Metabolic Activation: RAT, LIVER, S-9, PHENOBARBITAL AND BETA-NAPHTHOFLAVONE, Method: PREINCUBATION); “inactive; negative” (Test System: AMES SALMONELLA TYPHIMURIUM, Strain/Indicator: TA104, Metabolic Activation: NONE, Method: PREINCUBATION); “inactive; negative” (Test System: AMES SALMONELLA TYPHIMURIUM, Strain/Indicator: TA104, Metabolic Activation: RAT, LIVER, S-9, PHENOBARBITAL AND BETA-NAPHTHOFLAVONE, Method: PREINCUBATION); “inactive; negative” under setting [3]. The mutagenic call (Test System: AMES SALMONELLA TYPHIMURIUM, Strain/Indicator: TA1535, Metabolic Activation: RAT, LIVER, S-9, PHENOBARBITAL AND BETA-NAPHTHOFLAVONE, Method: PREINCUBATION) is “inactive; negative”; the mutagenic call under setting [4] was “inactive; negative”; the mutagenic call (Test System: AMES SALMONELLA TYPHIMURIUM, Strain/Indicator: TA1537, Metabolic Activation: RAT, LIVER, S-9, PHENOBARBITAL AND BETA-NAPHTHOFLAVONE, Method: PREINCUBATION) is “inactive; negative”; the mutagenic call (Test System: E. COLI, Strain/Indicator: WP2UVRA/PKM101, Metabolic Activation: NONE, Method: PREINCUBATION) was “inactive; negative”; the mutagenic call (Test System: E. COLI, Strain/Indicator: WP2UVRA/PKM101, Metabolic Activation: RAT, LIVER, S-9, PHENOBARBITAL AND BETA-NAPHTHOFLAVONE, Method: PREINCUBATION) is “inactive; negative”; the mutagenic call (Test System: E. COLI, Strain/Indicator: WP2UVRA, Metabolic Activation: NONE, Method: PREINCUBATION) was “inactive; negative”. Also, the mutagenic call (Test System: E. COLI, Strain/Indicator: WP2UVRA, Metabolic Activation: RAT, LIVER, S-9, PHENOBARBITAL AND BETA-NAPHTHOFLAVONE, Method: PREINCUBATION) is “inactive; negative”.

In the case of `CCCCOC(=O)c1cccc2cccnc12`, the mutagenic call is “inactive; negative” under setting [5]; “inactive; negative” under setting [6]; “inactive; negative” under setting [7]; “inactive; negative” under setting [8]; “inactive; negative” (Test System: AMES SALMONELLA TYPHIMURIUM, Strain/Indicator: TA1535, Metabolic Activation: NONE, Method: STANDARD PLATE); “inactive; negative” (Test System: AMES SALMONELLA TYPHIMURIUM, Strain/Indicator: TA1535, Metabolic Activation: RAT, LIVER, S-9, AROCLOR 1254, Method: STANDARD PLATE). For the same compound, the mutagenic call is, setting by setting: under setting [9], “inactive; negative”; (Test System: AMES SALMONELLA TYPHIMURIUM, Strain/Indicator: TA1537, Metabolic Activation: RAT, LIVER, S-9, AROCLOR 1254, Method: STANDARD PLATE) “inactive; negative”.

As for `COC(=O)C12OC1(C)C(C)(O)OC2=O` (stereo not drawn), the mutagenic call was “inactive; negative” (Test System: AMES SALMONELLA TYPHIMURIUM, Strain/Indicator: TA98, Metabolic Activation: NONE, Method: DISK ASSAY); “inactive; negative” under setting [5]; “inactive; negative” (Test System: AMES SALMONELLA TYPHIMURIUM, Strain/Indicator: TA98, Metabolic Activation: RAT, LIVER, S-9, AROCLOR 1254, Method: DISK ASSAY); “active; positive” under setting [6]; “inactive; negative” under setting [7]; “inactive; negative” under setting [8].

With `C[Si](Cl)Cl`, the mutagenic call by setting is: (Test System: AMES SALMONELLA TYPHIMURIUM, Strain/Indicator: TA98, Metabolic Activation: HAMSTER, LIVER, S-9, AROCLOR 1254, Method: PREINCUBATION) “inactive; negative”; under setting [1], “inactive; negative”; (Test System: AMES SALMONELLA TYPHIMURIUM, Strain/Indicator: TA98, Metabolic Activation: RAT, LIVER, S-9, AROCLOR 1254, Method: PREINCUBATION) “inactive; negative”; (Test System: AMES SALMONELLA TYPHIMURIUM, Strain/Indicator: TA100, Metabolic Activation: HAMSTER, LIVER, S-9, AROCLOR 1254, Method: PREINCUBATION) “inactive; negative”; under setting [2], “inactive; negative”; (Test System: AMES SALMONELLA TYPHIMURIUM, Strain/Indicator: TA100, Metabolic Activation: RAT, LIVER, S-9, AROCLOR 1254, Method: PREINCUBATION) “inactive; negative”. The mutagenic call reads like this: (Test System: AMES SALMONELLA TYPHIMURIUM, Strain/Indicator: TA1535, Metabolic Activation: HAMSTER, LIVER, S-9, AROCLOR 1254, Method: PREINCUBATION) “inactive; negative”; under setting [3], “inactive; negative”; (Test System: AMES SALMONELLA TYPHIMURIUM, Strain/Indicator: TA1535, Metabolic Activation: RAT, LIVER, S-9, AROCLOR 1254, Method: PREINCUBATION) “inactive; negative”; (Test System: AMES SALMONELLA TYPHIMURIUM, Strain/Indicator: TA1537, Metabolic Activation: HAMSTER, LIVER, S-9, AROCLOR 1254, Method: PREINCUBATION) “inactive; negative”; under setting [4], “inactive; negative”; (Test System: AMES SALMONELLA TYPHIMURIUM, Strain/Indicator: TA1537, Metabolic Activation: RAT, LIVER, S-9, AROCLOR 1254, Method: PREINCUBATION) “inactive; negative”. In addition, the mutagenic call was “inactive; negative” (Test System: AMES SALMONELLA TYPHIMURIUM, Strain/Indicator: TA1538, Metabolic Activation: HAMSTER, LIVER, S-9, AROCLOR 1254, Method: PREINCUBATION); “inactive; negative” (Test System: AMES SALMONELLA TYPHIMURIUM, Strain/Indicator: TA1538, Metabolic Activation: NONE, Method: PREINCUBATION); “inactive; negative” (Test System: AMES SALMONELLA TYPHIMURIUM, Strain/Indicator: TA1538, Metabolic Activation: RAT, LIVER, S-9, AROCLOR 1254, Method: PREINCUBATION); “inactive; negative. reevaluation of results: negative” (Test System: MOUSE LYMPHOMA, Strain/Indicator: L5178Y (TK+/TK-), Metabolic Activation: NONE, Method: SUSPENSION/PLATE); “inactive; negative. reevaluation of results: negative” (Test System: MOUSE LYMPHOMA, Strain/Indicator: L5178Y (TK+/TK-), Metabolic Activation: RAT, LIVER, S-9, AROCLOR 1254, Method: SUSPENSION/PLATE).

Take `Cc1c2ccccc2c(CCl)c2ccc3ccccc3c12`: the mutagenic call is, setting by setting: under setting [7], “active; positive”; under setting [9], “active; positive”.

In the case of `Cn1cc(C(=O)O)c(=O)c2ccc(/C=C/c3ccc([N+](=O)[O-])o3)nc21`, for the setting “Test System: AMES SALMONELLA TYPHIMURIUM, Strain/Indicator: TA100, Metabolic Activation: RAT, LIVER, S-9, KC500 OR PHENOBARBITAL, Method: LIQUID SUSPENSION”, the mutagenic call is “active; positive”.
